Experimental data reported in US7175872B2, “Pyridinium-Betain compounds for use as taste modulators” (Nestec S.A., priority 2002, dated 2007).
Structures can show the parent of a compound that is named as a salt.

Tests used:
Format in all cases: in vivo
sweet taste of sucrose = assay: Sweet taste detection threshold of sucrose/Pyridinium-Betaine mixtures (triangle test, sensory panel); design: key to Threshold decrease: fold decrease of sweet threshold vs pure sucrose
Method: (§1) • Sensory panel training: […] Sensory analyses were performed in a sensory panel room at 22-25° C. on three different sessions. • Taste thresholds: The taste thresholds of the tastants or mixtures containing basic tastants plus Pyridinium-Betains were determined in a triangle test using Evian® mineral water as the solvent at a defined pH ([…] and H.-D. Belitz, Z. Lebensm. Unters. Forsch. 1975, 159, 65-72). The samples (3 mL) were presented in order of increasing concentrations (serial 1:1 dilutions). The threshold values evaluated in two different sessions were averaged. […] The taste intensities of aqueous (Evian®) solutions containing a basic tastant, such as glucose and MSG, for example, in constant concentrations and the compounds of the general formula (A), for example […], in various concentrations were compared with those of a solution containing the basic tastant only. To achieve this, triangle tests were performed with two glass vials containing the basic tastant in constant concentrations, and one glass vial containing a stepwise 1:1-diluted mixture of basic […]. […] The relative taste strength (taste enhancing factor) of a mixture containing the basic […] was related to the basic tastants glucose, MSG, or other tastants, respectively, as standard substances, and was determined as the ratio of the concentrations c of iso-intensely tasting solutions of the basic tastant, such as glucose (glc), and the mixture containing tastant plus Pyridinium-Betain, […])=[…] This taste enhancing effect is illustrated in examples. The sweet taste thresholds of equimolar mixtures of sweet tasting compounds and various Pyridinium-Betaines were determined by a triangle test using EVIAN® mineral water as the solvent. The sensorial evaluations were performed at different pH values. The equimolar mixture of […] and sucrose at pH 7.0 was evaluated with a 4-fold lower sweet threshold concentration than pure sucrose (Table 1).

umami taste of MSG = assay: Umami taste detection threshold of MSG/Pyridinium-Betaine mixtures (triangle test, sensory panel)
Method: (§2) • Sensory panel training: […] Sensory analyses were performed in a sensory panel room at 22-25° C. on three different sessions. • Taste thresholds: The taste thresholds of the tastants or mixtures containing basic tastants plus Pyridinium-Betains were determined in a triangle test using Evian® mineral water as the solvent at a defined pH ([…] and H.-D. Belitz, Z. Lebensm. Unters. Forsch. 1975, 159, 65-72). The samples (3 mL) were presented in order of increasing concentrations (serial 1:1 dilutions). The threshold values evaluated in two different sessions were averaged. […] The taste intensities of aqueous (Evian®) solutions containing a basic tastant, such as glucose and MSG, for example, in constant concentrations and the compounds of the general formula (A), for example […], in various concentrations were compared with those of a solution containing the basic tastant only. To achieve this, triangle tests were performed with two glass vials containing the basic tastant in constant concentrations, and one glass vial containing a stepwise 1:1-diluted mixture of basic […]. […] The relative taste strength (taste enhancing factor) of a mixture containing the basic […] was related to the basic tastants glucose, MSG, or other tastants, respectively, as standard substances, and was determined as the ratio of the concentrations c of iso-intensely tasting solutions of the basic tastant, such as glucose (glc), and the mixture containing tastant plus Pyridinium-Betain, […])=[…] […] This taste enhancing effect is illustrated in examples. Pyridinium-Betaines not only enhance the sweet taste perception, but also the umami taste.

salty taste of NaCl = assay: Salt taste detection threshold of NaCl/Pyridinium-Betaine mixtures (triangle test, sensory panel)
Method: • Sensory panel training: […] Sensory analyses were performed in a sensory panel room at 22-25° C. on three different sessions. • Taste thresholds: The taste thresholds of the tastants or mixtures containing basic tastants plus Pyridinium-Betains were determined in a triangle test using Evian® mineral water as the solvent at a defined pH ([…] and H.-D. Belitz, Z. Lebensm. Unters. Forsch. 1975, 159, 65-72). The samples (3 mL) were presented in order of increasing concentrations (serial 1:1 dilutions). The threshold values evaluated in two different sessions were averaged. […] The taste intensities of aqueous (Evian®) solutions containing a basic tastant, such as glucose and MSG, for example, in constant concentrations and the compounds of the general formula (A), for example […], in various concentrations were compared with those of a solution containing the basic tastant only. […] The relative taste strength (taste enhancing factor) of a mixture containing the basic […] was related to the basic tastants glucose, MSG, or other tastants, respectively, as standard substances, and was determined as the ratio of the concentrations c of iso-intensely tasting solutions of the basic tastant, such as glucose (glc), and the mixture containing tastant plus Pyridinium-Betain, […])=[…] […] This taste enhancing effect is illustrated in examples.

sweet taste of L-alanine = assay: Sweet taste detection threshold of L-alanine/Pyridinium-Betaine mixtures (triangle test, sensory panel); details: L-alanine alone
Method: as §2, with “Besides the two carbohydrates,” for “Pyridinium-Betaines not only enhance”, “sweet amino acid L-alanine was also tested with […]. Again, the best impact on sweet” for “sweet”, “perception was found for” for “perception, but also”, “mixture at pH 9.0, resulting in an 8-fold lower threshold.” for “umami taste.”

bitter taste of caffeine = assay: Bitter intensity ranking with Glypyridaine: caffeine; details: no Glypyridaine, scale 0-5
Source text: Instead of working with low concentrated solutions at the bitter threshold, another series of experiments use carried out using more concentrated solutions of various bitter compounds to evaluate the bitter-blocking properties of Pyridinium-Betaines based on non-chiral amino acids. […] The bitter-reducing effect was most pronounced with L-Phenylalanine, the dipeptide H-Gly-Leu-OH, and caffeine.

sweet taste of glucose = assay: Sweet taste detection threshold of glucose/Pyridinium-Betaine mixtures (triangle test, sensory panel); details: equimolar mixture with glucose, pH 7.0; for Threshold decrease: vs glucose in water 50.0 mmol/L
Method: as §1, with “1). […] is able to reduce the sweet threshold of glucose 16-fold at pH 7.0 and pH 9.0, whereas at pH 5.0 a gain the sweet taste perception […] (Table 2). […] Using the dipeptide derivative (S)-[…] as a taste-enhancer leads to a 16-fold threshold reduction compared to glucose.” for “1).”

[1] = sweet, vs sucrose alone (Table 10)
[2] = umami, MSG and mixtures with Alapyridaine enantiomers (Table 9), pH not stated
[3] = equimolar mixture with sucrose, pH 7.0
[4] = equimolar mixture with sucrose, pH 9.0
[5] = equimolar mixture with sucrose, pH 9.0, vs sucrose in water 12.5 mmol/L
[6] = equimolar mixture with MSG, pH 7.0
[7] = equimolar mixture with MSG, pH 7.0, vs MSG in water 1.5 mmol/L

C[C@H](C(=O)[O-])[n+]1cc(O)ccc1CO [(−)-(R)-Alapyridaine, (R)-N-(1-carboxyethyl)-3-hydroxy-6-hydroxymethyl-pyridinium inner salt]
Threshold decrease (sweet taste of sucrose; [1]): does not alter the sweet taste perception of sucrose
Threshold decrease (umami taste of MSG; umami, vs MSG alone (Table 9)): does not have any taste enhancing impact
Threshold decrease (salty taste of NaCl; salty, vs NaCl alone (Table 11)): did not alter the taste of the aqueous salt solution

C[C@@H](C(=O)[O-])[n+]1cc(O)ccc1CO [(+)-(S)-Alapyridaine, (S)-N-(1-carboxyethyl)-3-hydroxy-6-hydroxymethyl-pyridinium inner salt]
Threshold decrease (sweet taste of sucrose; [1]): 8
Detection threshold (umami taste of MSG; [2]): 0.2 mmol/kg water

OC[C@H]1O[C@@](CO)(O[C@H]2O[C@H](CO)[C@@H](O)[C@H](O)[C@H]2O)[C@@H](O)[C@@H]1O [Sucrose, sucrose, reference compound]
threshold of sucrose in water (sweet taste of sucrose; sucrose alone): ^aThe threshold of sucrose in water is 12.5 mmol/L.
Taste quality (sweet taste of sucrose; sucrose and mixtures with Alapyridaine enantiomers (Table 10), pH not stated): sweet
Detection threshold (sweet taste of sucrose; sweet, sucrose and mixtures with Alapyridaine enantiomers (Table 10), pH not stated): 12.5 mmol/kg water

C[C@H](N)C(=O)O [L-alanine, reference compound]
threshold of L-alanine in water (sweet taste of L-alanine): ^aThe threshold of L-alanine in water is 12.5 mmol/L.

Cn1c(=O)c2c(ncn2C)n(C)c1=O [Caffeine, reference compound]
Bitter taste intensity (bitter taste of caffeine; Caffeine 4 mmol/L water): 3
Bitter taste intensity (bitter taste of caffeine; Caffeine 8 mmol/L water): 4.5
Bitter taste intensity (bitter taste of caffeine; Caffeine 16 mmol/L water): 5

O=C([O-])[C@H](Cc1ccccc1)[n+]1cc(O)ccc1CO [Phepyridaine]
Sweet detection threshold (sweet taste of sucrose; [3]): 3.0 mmol/kg water
Taste quality (sweet taste of sucrose; [3]): sweet
Threshold decrease (sweet taste of sucrose; equimolar mixture with sucrose, pH 7.0, vs sucrose in water 12.5 mmol/L): 4.0
Sweet detection threshold (sweet taste of sucrose; [4]): 1.5 mmol/kg water
Taste quality (sweet taste of sucrose; [4]): sweet
Threshold decrease (sweet taste of sucrose; [5]): 8.0
concentration above which a rubber-like off-taste is imparted (sweet taste of sucrose; mixture with sucrose): above 3 mmol/kg
concentration above which the sweetness is associated with a rubber-like taste (sweet taste of sucrose; mixture with sucrose): ^bThe sweetness is associated with a rubber-like taste in concentrations higher than 3 mmol/L.
Sweet detection threshold (sweet taste of glucose): 3.0 mmol/kg water
Taste quality (sweet taste of glucose): sweet
Threshold decrease (sweet taste of glucose): 16.0
Taste quality (umami taste of MSG; [6]): umami
Umami detection threshold (umami taste of MSG; [6]): 0.4 mmol/kg water
Threshold decrease (umami taste of MSG; [7]): 4.0
Salt detection threshold (salty taste of NaCl; mixture with NaCl, pH 7.0): 2.0 mmol/kg water
Taste quality (salty taste of NaCl; mixture with NaCl, pH 7.0): salty
Threshold decrease (salty taste of NaCl; mixture with NaCl, pH 7.0, vs NaCl in water 10.0 mmol/L): 5.0

O=C(O)CCC(C(=O)[O-])[n+]1cc(O)ccc1CO (stereo not shown) [Glupyridaine, N-(1,3-dicarboxypropyl)-3-hydroxy-6-hydroxymethyl-pyridinium inner salt]
Sweet detection threshold (sweet taste of sucrose; [3]): 12.0 mmol/kg water
Taste quality (sweet taste of sucrose; [3]): sweet
Sweet detection threshold (sweet taste of sucrose; [4]): 6.0 mmol/kg water
Taste quality (sweet taste of sucrose; [4]): sweet
Threshold decrease (sweet taste of sucrose; [5]): 2
Taste quality (umami taste of MSG; [6]): umami
Umami detection threshold (umami taste of MSG; [6]): 0.4 mmol/kg water
Threshold decrease (umami taste of MSG; [7]): 4.0

N[C@@H](CCC(=O)O)C(=O)[O-].[Na+] [MSG, monosodium glutamate, reference compound]
threshold of MSG in water (umami taste of MSG; MSG alone): ^aThe threshold of MSG in water is 1.5 mmol/L.
Taste quality (umami taste of MSG; MSG and mixtures with Alapyridaine enantiomers (Table 9), pH not stated): umami
Detection threshold (umami taste of MSG; [2]): 1.5 mmol/kg water

O=C(C[n+]1cc(O)ccc1CO)N[C@@H](Cc1ccccc1)C(=O)[O-] [(S)-GlyPhepyridaine, (S)-N-[N(1-carboxy-2-phenyl-ethyl)-carboxamido-methyl]-3-hydroxy-6-hydroxymethyl-pyridinium inner salt]
Sweet detection threshold (sweet taste of glucose): 3.0 mmol/kg water
Taste quality (sweet taste of glucose): sweet
Threshold decrease (sweet taste of glucose): 16
Taste quality (umami taste of MSG; [6]): umami
Umami detection threshold (umami taste of MSG; [6]): 0.2 mmol/kg water
Threshold decrease (umami taste of MSG; [7]): 8.0
